Patent publication US20110081315A1, “NOVEL MACROCYCLIC INHIBITORS OF HEPATITIS C VIRUS REPLICATION” (INTERMUNE, INC., priority 2009, published 2011)
Read-outs that look alike come from different tables or passages of the source.

Experiments:
NS3/NS4 complexes = NS3/NS4 complexes (Hepatitis C virus genotype 1a, UniProt P27958); experiment: NS3/NS4 inhibition assay (IC50); format: biochemical; conditions: NS3/NS4 activity; 23° C., 25 μM NS4A peptide
In short: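 Read-outs are IC50 for inhibition of the NS3/NS4 complex and EC50 in an HCV replicon system. Biochemical runs use 23° C. and a 50 mM Tris-HCl (pH 7.5) buffer with 15% glycerol, 10 mM DTT, 0.6 mM LDAO and 25 μM NS4A peptide.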

hepatitis C replicon = hepatitis C replicon EC50 assay; format: cell-based; conditions: Hepatitis C virus
In short: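 NS3/NS4 protease complexes were formed and compound inhibitory concentrations (IC50) measured at ambient temperature (23° C.) in 50 mM Tris-HCl, pH 7.5, with 15% glycerol, 0.6 mM LDAO, 25 μM NS4A peptide and 10 mM DTT. Replicon EC50 values come from a standard HCV replicon cell assay.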

[1] = hepatitis C replicon, read-out: EC50

Sequence of NS3/NS4 complexes (P27958 1027-1657, one chain of several): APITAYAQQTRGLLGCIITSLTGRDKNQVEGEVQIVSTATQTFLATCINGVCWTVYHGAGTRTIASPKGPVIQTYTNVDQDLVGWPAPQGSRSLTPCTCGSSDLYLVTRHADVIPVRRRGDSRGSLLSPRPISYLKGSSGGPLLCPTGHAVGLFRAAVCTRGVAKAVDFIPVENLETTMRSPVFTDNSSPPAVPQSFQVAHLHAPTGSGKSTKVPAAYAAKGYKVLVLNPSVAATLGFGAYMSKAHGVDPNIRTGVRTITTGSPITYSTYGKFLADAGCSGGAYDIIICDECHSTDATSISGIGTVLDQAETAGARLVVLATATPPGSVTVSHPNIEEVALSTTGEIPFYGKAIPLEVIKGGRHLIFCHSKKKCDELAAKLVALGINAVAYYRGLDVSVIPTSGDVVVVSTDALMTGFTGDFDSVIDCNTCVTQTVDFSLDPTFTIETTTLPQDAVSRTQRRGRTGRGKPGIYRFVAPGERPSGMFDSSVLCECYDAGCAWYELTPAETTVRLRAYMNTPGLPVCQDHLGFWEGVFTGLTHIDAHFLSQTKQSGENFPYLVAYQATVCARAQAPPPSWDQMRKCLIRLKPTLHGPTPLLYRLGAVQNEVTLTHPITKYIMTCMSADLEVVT

SMILES	IC50 (NS3/NS4 complexes) [nM]	EC50 (hepatitis C replicon; [1]) [nM]	EC50 (hepatitis C replicon) [nM]
CC(C)NC(=O)Nc1cccc2c1nc(O[C@@H]1C[C@H]3C(=O)N[C@]4(C(=O)NS(=O)(=O)C5(C)CC5)C[C@H]4/C=C\CCCCC[C@H](Nc4ccccc4)C(=O)N3C1)n2C(C)C [Compound 1407]	< 10	10 to 100	–
CC(C)n1c(O[C@@H]2C[C@H]3C(=O)N[C@]4(C(=O)NS(=O)(=O)C5(C)CC5)C[C@H]4/C=C\CCCCC[C@H](Nc4ccccc4)C(=O)N3C2)nc2c(N)cccc21 [Compound 1408]	< 10	10 to 100	–
CCOC(=O)Nc1cccc2c1nc(O[C@@H]1C[C@H]3C(=O)N[C@]4(C(=O)NS(=O)(=O)C5(C)CC5)C[C@H]4/C=C\CCCCC[C@H](Nc4ccccc4)C(=O)N3C1)n2C(C)C [Compound 1409]	< 10	< 10	–
CC(C)n1c(O[C@@H]2C[C@H]3C(=O)N[C@]4(C(=O)NS(=O)(=O)C5(C)CC5)C[C@H]4/C=C\CCCCC[C@H](Nc4ccccc4)C(=O)N3C2)nc2c(NC(N)=O)cccc21 [Compound 1410]	< 10	10 to 100	–
CC(C)n1c(O[C@@H]2C[C@H]3C(=O)N[C@]4(C(=O)NS(=O)(=O)C5(C)CC5)C[C@H]4/C=C\CCCCC[C@H](NC(=O)OC4CCCC4)C(=O)N3C2)nc2c(-c3nc(C4CCCC4)cs3)cccc21 [Compound 1412]	< 10	< 10	–
CC(C)n1c(O[C@@H]2C[C@H]3C(=O)N[C@]4(C(=O)NS(=O)(=O)C5(C)CC5)C[C@H]4/C=C\CCCCC[C@H](NC(=O)OC4COC4)C(=O)N3C2)nc2c(-c3nc(C4CCCC4)cs3)cccc21 [Compound 1414]	< 10	< 10	–
CC(C)c1csc(-c2cccc3c2nc(O[C@@H]2C[C@H]4C(=O)N[C@]5(C(=O)NS(=O)(=O)C6(C)CC6)C[C@H]5/C=C\CCCCC[C@H](Nc5nccs5)C(=O)N4C2)n3C(C)C)n1 [Compound 1418]	< 10	< 10	–
CC(C)n1c(O[C@@H]2C[C@H]3C(=O)N[C@]4(C(=O)NS(=O)(=O)N(C)C)C[C@H]4/C=C\CCCCC[C@H](NC(=O)OC(C)(C)C)C(=O)N3C2)nc2c(N)cccc21 [Compound 1419]	< 10	< 10	–
CC(C)n1c(O[C@@H]2C[C@H]3C(=O)N[C@]4(C(=O)NS(=O)(=O)N(C)C)C[C@H]4/C=C\CCCCC[C@H](NC(=O)OC(C)(C)C)C(=O)N3C2)nc2c(NC(=O)Nc3ccccc3)cccc21 [Compound 1420]	< 10	–	< 10
CC(C)NC(=O)Nc1cccc2c1nc(O[C@@H]1C[C@H]3C(=O)N[C@]4(C(=O)NS(=O)(=O)N(C)C)C[C@H]4/C=C\CCCCC[C@H](NC(=O)OC(C)(C)C)C(=O)N3C1)n2C(C)C [Compound 1421]	< 10	< 10	–
CC(C)n1c(O[C@@H]2C[C@H]3C(=O)N[C@]4(C(=O)NS(=O)(=O)N(C)C)C[C@H]4/C=C\CCCCC[C@H](NC(=O)OC(C)(C)C)C(=O)N3C2)nc2c(NC(=O)NCc3ccccc3)cccc21 [Compound 1423]	< 10	< 10	–
CC(C)n1c(O[C@@H]2C[C@H]3C(=O)N[C@]4(C(=O)NS(=O)(=O)N(C)C)C[C@H]4/C=C\CCCCC[C@H](NC(=O)OC(C)(C)C)C(=O)N3C2)nc2c(NC(=O)NCCc3ccccc3)cccc21 [Compound 1424]	< 10	–	< 10
CC(C)n1c(O[C@@H]2C[C@H]3C(=O)N[C@]4(C(=O)NS(=O)(=O)N(C)C)C[C@H]4/C=C\CCCCC[C@H](NC(=O)OC(C)(C)C)C(=O)N3C2)nc2c(NC(N)=O)cccc21 [Compound 1425]	< 10	10 to 100	–
CNC(=O)Nc1cccc2c1nc(O[C@@H]1C[C@H]3C(=O)N[C@]4(C(=O)NS(=O)(=O)N(C)C)C[C@H]4/C=C\CCCCC[C@H](NC(=O)OC(C)(C)C)C(=O)N3C1)n2C(C)C [Compound 1426]	< 10	10 to 100	–
CCOC(=O)Nc1cccc2c1nc(O[C@@H]1C[C@H]3C(=O)N[C@]4(C(=O)NS(=O)(=O)N(C)C)C[C@H]4/C=C\CCCCC[C@H](NC(=O)OC(C)(C)C)C(=O)N3C1)n2C(C)C [Compound 1427]	< 10	< 10	–
CC(C)n1c(O[C@@H]2C[C@H]3C(=O)N[C@]4(C(=O)NS(=O)(=O)N(C)C)C[C@H]4/C=C\CCCCC[C@H](NC(=O)OC(C)(C)C)C(=O)N3C2)nc2c(NC(=O)OCc3ccccc3)cccc21 [Compound 1428]	< 10	< 10	–
CC(C)n1c(O[C@@H]2C[C@H]3C(=O)N[C@]4(C(=O)NS(=O)(=O)N(C)C)C[C@H]4/C=C\CCCCC[C@H](NC(=O)OC(C)(C)C)C(=O)N3C2)nc2c(NC(=O)OCCc3ccccc3)cccc21 [Compound 1429]	< 10	< 10	–
CCn1c(O[C@@H]2C[C@H]3C(=O)N[C@]4(C(=O)NS(=O)(=O)N(C)C)C[C@H]4/C=C\CCCCC[C@H](NC(=O)OC(C)(C)C)C(=O)N3C2)nc2c(-c3nc(C(C)C)cs3)cccc21 [Compound 1430]	< 10	10 to 100	–

SMILES	IC50 (NS3/NS4 complexes) [nM]	EC50 (hepatitis C replicon; [1]) [nM]	EC50 (hepatitis C replicon) [nM]
CCn1c(O[C@@H]2C[C@H]3C(=O)N[C@]4(C(=O)NS(=O)(=O)N(C)C)C[C@H]4/C=C\CCCCC[C@H](NC(=O)OC(C)(C)C)C(=O)N3C2)nc2c(-c3nc(-c4ccccc4)cs3)cccc21 [Compound 1431]	< 10	10 to 100	–
CCn1c(O[C@@H]2C[C@H]3C(=O)N[C@]4(C(=O)NS(=O)(=O)N(C)C)C[C@H]4/C=C\CCCCC[C@H](NC(=O)OC(C)(C)C)C(=O)N3C2)nc2c(-c3nc(C(C)C)c(C)s3)cccc21 [Compound 1432]	< 10	10 to 100	–
CC(C)c1csc(-c2cccc3c2nc(O[C@@H]2C[C@H]4C(=O)N[C@]5(C(=O)NS(=O)(=O)N(C)C)C[C@H]5/C=C\CCCCC[C@H](NC(=O)OC(C)(C)C)C(=O)N4C2)n3C(C)C)n1 [Compound 1433]	< 10	< 10	–
CC(C)n1c(O[C@@H]2C[C@H]3C(=O)N[C@]4(C(=O)NS(=O)(=O)C5CC5)C[C@H]4/C=C\CCCCC[C@H](NC(=O)OC(C)(C)C)C(=O)N3C2)nc2c(-c3nc(C4CCCC4)cs3)cccc21 [Compound 1434]	< 10	< 10	–
CC(C)c1coc(-c2cccc3c2nc(O[C@@H]2C[C@H]4C(=O)N[C@]5(C(=O)NS(=O)(=O)N(C)C)C[C@H]5/C=C\CCCCC[C@H](NC(=O)OC(C)(C)C)C(=O)N4C2)n3C(C)C)n1 [Compound 1435]	< 10	< 10	–
Cc1cc(-c2nc(C(C)C)cs2)c2nc(O[C@@H]3C[C@H]4C(=O)N[C@]5(C(=O)NS(=O)(=O)N(C)C)C[C@H]5/C=C\CCCCC[C@H](NC(=O)OC(C)(C)C)C(=O)N4C3)n(C(C)C)c2c1 [Compound 1436]	< 10	10 to 100	–
CC1(S(=O)(=O)NC(=O)[C@@]23C[C@H]2/C=C\CCCCC[C@H](Nc2ccccc2)C(=O)N2C[C@H](n4nc5ccccc5n4)C[C@H]2C(=O)N3)CC1 [Compound 1501]	10 to 100	> 100	–
CC1(S(=O)(=O)NC(=O)[C@@]23C[C@H]2/C=C\CCCCC[C@H](Nc2ccccc2)C(=O)N2C[C@H](n4nnc5ccccc54)C[C@H]2C(=O)N3)CC1 [Compound 1502]	< 10	> 100	–
CC1(S(=O)(=O)NC(=O)[C@@]23C[C@H]2/C=C\CCCCC[C@H](Nc2ccccc2)C(=O)N2C[C@H](n4ncc(-c5ccccc5)n4)C[C@H]2C(=O)N3)CC1 [Compound 1503]	< 10	> 100	–
CC1(S(=O)(=O)NC(=O)[C@@]23C[C@H]2/C=C\CCCCC[C@H](Nc2ccccc2)C(=O)N2C[C@H](n4cc(-c5ccccc5)nn4)C[C@H]2C(=O)N3)CC1 [Compound 1504]	10 to 100	> 100	–
CC1(S(=O)(=O)NC(=O)[C@@]23C[C@H]2/C=C\CCCCC[C@H](Nc2ccccc2)C(=O)N2C[C@H](n4nc(Br)c(-c5ccccc5)n4)C[C@H]2C(=O)N3)CC1 [Compound 1505]	< 10	> 100	–
COc1ccc(-c2nn([C@@H]3C[C@H]4C(=O)N[C@]5(C(=O)NS(=O)(=O)C6(C)CC6)C[C@H]5/C=C\CCCCC[C@H](Nc5ccccc5)C(=O)N4C3)nc2-c2nccs2)cc1 [Compound 1506]	< 10	10 to 100	–
COc1ccc2c(O[C@@H]3C[C@H]4C(=O)N[C@]5(C(=O)NS(=O)(=O)C6CC6)C[C@H]5/C=C\CCCCN(c5ccccc5)C(=O)[C@@H]4C3)cc(-c3nc(C(C)C)cs3)nc2c1C [Compound 1601]	< 10	> 100	–
CC(C)n1c(O[C@@H]2C[C@H]3C(=O)N[C@]4(C(=O)NS(=O)(=O)C5(C)CC5)C[C@H]4/C=C\CCCCC[C@H](NC(=O)OC(C)(C)C)C(=O)N3C2)nc2c(-c3csc(-c4ccccc4)n3)cccc21 [Compound 1701]	< 10	10 to 100	–
CC(C)n1c(O[C@@H]2C[C@H]3C(=O)N[C@]4(C(=O)NS(=O)(=O)C5(C)CC5)C[C@H]4/C=C\CCCCC[C@H](NC(=O)OC(C)(C)C)C(=O)N3C2)nc2c(-c3csc(C4CC4)n3)cccc21 [Compound 1702]	< 10	< 10	–
CC(C)n1c(O[C@@H]2C[C@H]3C(=O)N[C@]4(C(=O)NS(=O)(=O)C5(C)CC5)C[C@H]4/C=C\CCCCC[C@H](NC(=O)OC(C)(C)C)C(=O)N3C2)nc2c(-c3csc(-c4cc(F)cc(F)c4)n3)cccc21 [Compound 1703]	< 10	10 to 100	–
CC(C)n1c(O[C@@H]2C[C@H]3C(=O)N[C@]4(C(=O)NS(=O)(=O)C5(C)CC5)C[C@H]4/C=C\CCCCC[C@H](NC(=O)OC(C)(C)C)C(=O)N3C2)nc2c(-c3csc(N4CCOCC4)n3)cccc21 [Compound 1704]	< 10	< 10	–
CC(C)n1c(O[C@@H]2C[C@H]3C(=O)N[C@]4(C(=O)NS(=O)(=O)C5(C)CC5)C[C@H]4/C=C\CCCCC[C@H](NC(=O)OC(C)(C)C)C(=O)N3C2)nc2c(-c3cnc(N4CCCC4)cn3)cccc21 [Compound 1705]	< 10	< 10	–
